Measurements taken from patent publication US20100093638A1, “TREAMENT FOR CHEMICAL SUBSTANCE ADDICTION” (priority 2007, published 2010).
No end group written: not given here.

Columns and labels:
[1] = tested on: mice; assay: Effects of central ghrelin injection on alcohol intake and alcohol preference, two-bottle free choice paradigm; format: in vivo; settings: for average alcohol intake / average alcohol preference: ghrelin 2 μg in 1 μl into third ventricle; for average alcohol intake: baseline 1.65; for average alcohol preference: day before 26.76%
Source text: The following studies sought to determine whether ghrelin increases alcohol intake and the preference for alcohol in mice selected on the basis of their spontaneous level of alcohol intake. We tested the effects of ghrelin injection into the brain ventricles on alcohol consumption and alcohol preference in mice.
All mice used in this study were selected on the basis of their spontaneously medium level of alcohol intake. Initially, the mice were able to choose freely between alcohol solution (10%) and water. When they had established a stable alcohol intake (approximately 20-80% of their total fluid intake was alcohol) they began a training schedule that gave them access to 10% alcohol for 90 min ever day over two weeks. The mice were then implanted with a cannula into the third ventricle of the brain for subsequent injection. During a baseline period, spontaneous alcohol intake was measured during a 90 min period average for 3 measurements taken on 3 days using a two-bottle free choice paradigm (i.e. water or 10% alcohol). The same protocol was used after ghrelin/vehicle injection on the experimental days.

[2] = tested on: ghrelin receptor (GHS-R1A) knockout mice; settings: alcohol 1.0 g/kg i.p.; GHS-R knockout mice vs wildtype; P<0.05
Source text: Locomotor activity was registered in eight sound attenuated, ventilated and dimly lit locomotor boxes (420×420×200 mm, Plexiglas®). Five by five rows of photocell beams at the floor level of the box allowed a computer-based system to register the activity of the mice. The mice were allowed to habituate to the environment in the box for one hour before drug challenge and initialization of the experiment. […] Locomotor activity was defined as the accumulated number of new photocell beams interrupted during a 60-minute period.

[3] = tested on: ghrelin receptor (GHS-R1A) knockout mice; settings: alcohol 1.0 g/kg ip; GHSR knockout mice vs wt/wt
Protocol: The mice were implanted with a microdialysis probe in the nucleus accumbens for measurements of extracellular dopamine levels. […] The mice were connected to the microdialysis apparatus via a liquid swivel (CMA/Microdialysis AB, Stockholm, Sweden) and were able to move freely during the experiment. After one hour of habituation to the microdialysis perfusion set up, perfusion samples (30 μl) were collected every 20 minutes. Five samples were collected prior to the first alcohol challenge. The baseline dopamine level is defined as the averaged concentration of the three consecutive samples before the first alcohol challenge. Thereafter vehicle (saline, ip) was administered at time 0 minutes.

[4] = intraventricular administration, p<0.05, paired t-test

Compound | average alcohol intake ([1]; experiment day one) [g/kg/1.5 hr] | average alcohol preference ([1]; experiment day one) [%] | average alcohol intake ([1]; experiment day two) [g/kg/1.5 hr] | average alcohol preference ([1]; experiment day two) [%] | effect on alcohol intake compared to the day before the experiments [1, 4] | effect on alcohol preference compared to the day before the experiments [1, 4] | alcohol-induced locomotor activity [2] | alcohol-induced accumbal dopamine release [3]
ghrelin (GSSFLSPEHQRVQQRKESKKPPAKLQPR; ends and bridges not checked; UniProt Q9UBU3 24-51, looked up) [endogenous ligand for GHS-R, secreted by stomach tissue; purchasable from Bachem] | 1.72 | 31.72 | 2.15 | 33.70 | increased the alcohol intake | significant increase of alcohol preference | – | –
CCO [alcohol] | – | – | – | – | – | – | do not show an alcohol-induced locomotor activity | blunted
